The values below come from patent publication US8785488B2 (Exelixis Patent Company LLC, priority 2009, dated 2014).

SMILES strings stand for the structures. Like-named read-outs stand apart in the source and are kept apart here.

Test [1] has as its target T1, human TGR5 (h-TGR5) (Homo sapiens, UniProt Q8TDU6).
T1 construct: expressed in transfected cells
T1 sequence (Q8TDU6 1-330): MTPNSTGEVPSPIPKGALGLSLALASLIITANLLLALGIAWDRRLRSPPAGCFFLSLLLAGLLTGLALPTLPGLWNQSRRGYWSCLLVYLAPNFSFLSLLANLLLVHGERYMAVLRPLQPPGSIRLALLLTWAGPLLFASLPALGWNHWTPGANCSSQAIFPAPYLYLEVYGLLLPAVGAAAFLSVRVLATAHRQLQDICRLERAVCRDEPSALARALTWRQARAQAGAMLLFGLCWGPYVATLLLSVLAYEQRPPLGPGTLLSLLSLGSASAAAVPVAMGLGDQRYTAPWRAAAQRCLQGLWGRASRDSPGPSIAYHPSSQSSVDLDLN
The test is described as follows: TGR5/CRE-Luciferiase Assay (HEK 293 hTGR5/CRE-Luc cells). The class given is cell-based. An outline of the steps: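 HEK293 cells stably carrying hTGR5 and a CRE-luciferase reporter were exposed to serially diluted compounds (diluted in DMEM with 5% DMSO) for 6 h. Cells were then lysed in luciferase buffer, luminescence was read, and EC50 values were derived from dose-response curves.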

In test [2] the target is T2, h-TGR5 (Homo sapiens, UniProt Q8TDU6).
T2 construct: expressed in transfected cells
T2 sequence (Q8TDU6 1-330): T1 sequence (Q8TDU6 1-330)
The test is described as follows: TGR5 cAMP Assay using Cisbio cAMP Dynamic2 htrf kit (hTGR5CRE-luc HEK 293 cells). The class given is cell-based. An outline of the steps:
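[…], 4000 hTGR5CRE-luc HEK 293 cells per well, with 0.5 mM IBMX and d2-cAMP, were incubated 30 min at room temperature with compounds in 8-point half-log series, in quadruplicate.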

Setting [3] is: h-TGR5 CRE-Luc EC50, Table 1, read-out: CRE-Luc (EC50).
[4] abbreviates: h-TGR5 cAMP EC50, Table 1, read-out: cAMP (EC50).

In the case of `COc1cc(-n2c(C(C)(C)c3ccc(S(N)(=O)=O)c(Cl)c3)cnc2SCc2ccc(S(=O)(=O)NC(=O)NN3CCCCC3)cc2Cl)ccc1F` [4-{[(5-{1-[4-(aminosulfonyl)-3-chlorophenyl]-1-methylethyl}-1-[4-fluoro-3-(methyloxy)phenyl]-1H-imidazol-2-yl)thio]methyl}-3-chloro-N-[(piperidin-1-ylamino)carbonyl]benzenesulfonamide], the EC50 in test [1] (setting [3]) and in test [2] (setting [4]) was 100 to 1000 nM in each case.

Turning to `COc1ccc(C(C)(C)c2cnc(SCc3ccc(S(=O)(=O)NC(=O)NN4CCCC4)cc3Cl)n2-c2ccc(F)cc2)cc1Cl` [3-chloro-4-({[5-{1-[3-chloro-4-(methyloxy)phenyl]-1-methylethyl}-1-(4-fluorophenyl)-1H-imidazol-2-yl]thio}methyl)-N-[(pyrrolidin-1-ylamino)carbonyl]benzenesulfonamide], the EC50 in test [1] (setting [3]) and in test [2] (setting [4]) was 100 to 1000 nM each time.

For `COc1cc(C(C)(C)c2cnc(SCc3c(F)cc(C(C)(C)O)cc3Cl)n2-c2ccc(F)cc2)ccc1Cl` [2-[3-chloro-4-({[5-{1-[4-chloro-3-(methyloxy)phenyl]-1-methylethyl}-1-(4-fluorophenyl)-1H-imidazol-2-yl]thio}methyl)-5-fluorophenyl]propan-2-ol], the EC50 in test [1] (setting [3]) and in test [2] (setting [4]) was less than 100 nM each time.

Turning to `COc1cc(C(C)(C)c2cnc(SCC3CCN(c4nnn[nH]4)CC3)n2-c2ccc(F)cc2)ccc1Cl` [4-({[5-{1-[4-chloro-3-(methyloxy)phenyl]-1-methylethyl}-1-(4-fluorophenyl)-1H-imidazol-2-yl]thio}methyl)-1-(1H-tetrazol-5-yl)piperidine], the results for the EC50 in test [1] (setting [3]) and in test [2] (setting [4]) were less than 100 nM and 100 to 1000 nM, respectively.

Regarding `COc1cc(-n2c(C(C)(C)c3ccc(S(N)(=O)=O)c(Cl)c3)cnc2SCc2ccc(C(=O)NCCS(=O)(=O)O)cc2F)ccc1F` [2-{[(4-{[(5-{1-[4-(aminosulfonyl)-3-chlorophenyl]-1-methylethyl}-1-[4-fluoro-3-(methyloxy)phenyl]-1H-imidazol-2-yl)thio]methyl}-3-fluorophenyl)carbonyl]amino}ethanesulfonic acid], the EC50 in test [1] (setting [3]) and in test [2] (setting [4]) was less than 100 nM throughout.

In the case of `COc1cc(C(C)(C)c2cnc(SCc3c(F)cc(OCCNC(=N)N)cc3F)n2-c2ccc(F)cc2)ccc1F` [1-(2-{[3,5-difluoro-4-({[5-{1-[4-fluoro-3-(methyloxy)phenyl]-1-methylethyl}-1-(4-fluorophenyl)-1H-imidazol-2-yl]thio}methyl)phenyl]oxy}ethyl)guanidine], the EC50 in test [1] (setting [3]) and in test [2] (setting [4]) was less than 100 nM throughout.

For the compound `COc1cc(C(C)(C)c2cnc(SCc3c(F)cc(C(=O)NO)cc3F)n2-c2ccc(F)cc2)ccc1Cl` [4-({[5-{1-[4-chloro-3-(methyloxy)phenyl]-1-methylethyl}-1-(4-fluorophenyl)-1H-imidazol-2-yl]thio}methyl)-3,5-difluoro-N-hydroxybenzamide], the EC50 in test [1] (setting [3]) and in test [2] (setting [4]) was less than 100 nM each time.

On to `CC(C)(c1ccc(Cl)c(Cl)c1)c1cnc(CCc2c(F)cc(C(=O)NCCS(=O)(=O)O)cc2Cl)n1-c1ccc(F)cc1` [2-({[3-chloro-4-(2-{5-[1-(3,4-dichlorophenyl)-1-methylethyl]-1-(4-fluorophenyl)-1H-imidazol-2-yl}ethyl)-5-fluorophenyl]carbonyl}amino)ethanesulfonic acid], for which the EC50 in test [1] (setting [3]) and in test [2] (setting [4]) was less than 100 nM in each case.

As to `CC(C)(c1ccc2ccccc2c1)c1cnc(SCc2c(F)cc(C(=O)O)cc2F)n1-c1ccc(F)cc1` [3,5-difluoro-4-({[1-(4-fluorophenyl)-5-(1-methyl-1-naphthalen-2-ylethyl)-1H-imidazol-2-yl]thio}methyl)benzoic acid], the EC50 in test [1] (setting [3]) and in test [2] (setting [4]) was 100 to 1000 nM each time.

Consider `COc1cc(-n2c(C(C)(C)c3ccc(S(N)(=O)=O)c(Cl)c3)cnc2SCc2c(F)cc(C(=O)NCCC(=O)O)cc2F)ccc1F` [N-[(4-{[(5-{1-[4-(aminosulfonyl)-3-chlorophenyl]-1-methylethyl}-1-[4-fluoro-3-(methyloxy)phenyl]-1H-imidazol-2-yl)thio]methyl}-3,5-difluorophenyl)carbonyl]-beta-alanine], for which the EC50 in test [1] (setting [3]) and in test [2] (setting [4]) was less than 100 nM throughout.

`COc1cc(-n2c(SCc3ccc(Cl)c(-c4nnn[nH]4)c3)nnc2C(C)(C)c2ccc(Cl)c(OC)c2)ccc1F` [Example 49]: the EC50 in test [1] (HEK 293 hTGR5/CRE-Luc cells, 6 hours incubation, luciferase activity, Table 2, read-out: h-TGR5CRE-Luc EC50 (CRE-Luc)) was less than 100 nM; in test [2] (hTGR5CRE-luc HEK 293 cells, htrf cAMP, Table 2, read-out: h-TGR5 cAMP EC50 (cAMP)), 100 to 1000 nM.

On to `COc1cc(C(C)(C)c2cnc(COc3c(F)cc(C(=O)O)cc3Cl)n2-c2ccc(F)cc2)ccc1Cl` [3-chloro-4-({[5-{1-[4-chloro-3-(methyloxy)phenyl]-1-methylethyl}-1-(4-fluorophenyl)-1H-imidazol-2-yl]methyl}oxy)-5-fluorobenzoic acid], for which the EC50 in test [1] (setting [3]) and in test [2] (setting [4]) was 100 to 1000 nM in each case.

In the case of `CC(C)(c1ccc(Cl)c(Cl)c1)c1cnc(SCc2c(F)cccc2Cl)n1-c1ccc(F)c(F)c1` [2-{[(2-chloro-6-fluorophenyl)methyl]thio}-5-[1-(3,4-dichlorophenyl)-1-methylethyl]-1-(3,4-difluorophenyl)-1H-imidazole], the EC50 was less than 100 nM in test [1] (setting [3]) and 100 to 1000 nM in test [2] (setting [4]).

With `CCNC(=O)NS(=O)(=O)c1ccc(CSc2ncc(C(C)(C)c3ccc(Cl)c(OC)c3)n2-c2ccc(F)cc2)c(Cl)c1` [3-chloro-4-({[5-{1-[4-chloro-3-(methyloxy)phenyl]-1-methylethyl}-1-(4-fluorophenyl)-1H-imidazol-2-yl]thio}methyl)-N-[(ethylamino)carbonyl]benzenesulfonamide], the values for the EC50 in test [1] (setting [3]) and in test [2] (setting [4]) were 100 to 1000 nM and less than 100 nM, respectively.

As for `COc1cc(C(C)(C)c2cnc(SCc3cc(S(N)(=O)=O)c(Cl)cc3F)n2-c2ccc(F)cc2)ccc1Cl` [2-chloro-5-({[5-{1-[4-chloro-3-(methyloxy)phenyl]-1-methylethyl}-1-(4-fluorophenyl)-1H-imidazol-2-yl]thio}methyl)-4-fluorobenzenesulfonamide], the EC50 in test [1] (setting [3]) and in test [2] (setting [4]) was less than 100 nM in each case.

`CCOC(=O)NS(=O)(=O)c1ccc(CSc2ncc(C(C)(C)c3ccc(S(N)(=O)=O)c(Cl)c3)n2-c2ccc(F)c(OC)c2)c(Cl)c1` [ethyl [(4-{[(5-{1-[4-(aminosulfonyl)-3-chlorophenyl]-1-methylethyl}-1-[4-fluoro-3-(methyloxy)phenyl]-1H-imidazol-2-yl)thio]methyl}-3-chlorophenyl)sulfonyl]carbamate]: the EC50 in test [1] (setting [3]) and in test [2] (setting [4]) was less than 100 nM throughout.

In the case of `CC(C)(c1ccc(Cl)c(Cl)c1)c1cnc(SCc2ccc(OCCO)c(S(N)(=O)=O)c2)n1-c1ccc(F)cc1` [5-[({5-[1-(3,4-dichlorophenyl)-1-methylethyl]-1-(4-fluorophenyl)-1H-imidazol-2-yl}thio)methyl]-2-[(2-hydroxyethyl)oxy]benzenesulfonamide], the EC50 is less than 100 nM in test [1] (setting [3]) and 100 to 1000 nM in test [2] (setting [4]).

With `COc1cc(-n2c(C(C)(C)c3ccc(S(C)(=O)=O)cc3)cnc2SCc2ccc(S(=O)(=O)NC(=O)NN3CCCC3)cc2Cl)ccc1F` [3-chloro-4-{[(1-[4-fluoro-3-(methyloxy)phenyl]-5-{1-methyl-1-[4-(methylsulfonyl)phenyl]ethyl}-1H-imidazol-2-yl)thio]methyl}-N-[(pyrrolidin-1-ylamino)carbonyl]benzenesulfonamide], the EC50 fell in the range of 100 to 1000 nM in test [1] (setting [3]) and 1000 to 10000 nM in test [2] (setting [4]).

For the compound `CC(C)(c1ccc(F)c(C#N)c1)c1cnc(SCc2ccc(S(=O)(=O)NC(=O)NN3CCCC3)cc2Cl)n1-c1ccc(F)cc1` [3-chloro-4-[({5-[1-(3-cyano-4-fluorophenyl)-1-methylethyl]-1-(4-fluorophenyl)-1H-imidazol-2-yl}thio)methyl]-N-[(pyrrolidin-1-ylamino)carbonyl]benzenesulfonamide], the 50% effective concentration (EC50) in test [1] (setting [3]) and in test [2] (setting [4]) was 100 to 1000 nM throughout.

As to `COc1cc(C(C)(C)c2cnc(SCc3ccc(S(=O)(=O)NC(=O)NN4CCCC4)cc3Cl)n2-c2ccc(F)c(Cl)c2)ccc1Cl` [3-chloro-4-({[1-(3-chloro-4-fluorophenyl)-5-{1-[4-chloro-3-(methyloxy)phenyl]-1-methylethyl}-1H-imidazol-2-yl]thio}methyl)-N-[(pyrrolidine-1-ylamino)carbonyl]benzenesulfonamide], the EC50 in test [1] (setting [3]) was less than 100 nM; in test [2] (setting [4]) it was 100 to 1000 nM.

As to `COc1cc(C(C)(C)c2cnc(SCc3c(F)ccc(OCCCNC(=N)N)c3Cl)n2-c2ccc(F)cc2)ccc1F` [1-(3-{[2-chloro-4-fluoro-3-({[5-{1-[4-fluoro-3-(methyloxy)phenyl]-1-methylethyl}-1-(4-fluorophenyl)-1H-imidazol-2-yl]thio}methyl)phenyl]oxy}propyl)guanidine], the EC50 in test [1] (setting [3]) and in test [2] (setting [4]) was less than 100 nM each time.

Consider `CC(C)(c1ccc(Cl)c(Cl)c1)c1cnc(SCc2ccc(S(N)(=O)=O)cc2Cl)n1-c1ccc(F)cc1` [3-chloro-4-[({5-[1-(3,4-dichlorophenyl)-1-methylethyl]-1-(4-fluorophenyl)-1H-imidazol-2-yl}thio)methyl]benzenesulfonamide], for which the EC50 in test [1] (setting [3]) and in test [2] (setting [4]) was 100 to 1000 nM throughout.
